Converted amounts (≈) assume the structure as drawn. Marks after values point to notes of the source that are not given here. Blank lines part the entries; values can stand above or below the molecule they belong to.
Key:
Human erythrocytes = assay: Haemolytic assay; format: cell-based; settings: human erythrocytes, 1 h, 37 °C
Experimental: (§1) Haemolytic activity was evaluated as described previously by Ishnava and Shah with a slight modification. Human erythrocytes from healthy individuals were collected in vacuum tubes containing EDTA as anti-coagulant. The erythrocytes were harvested by centrifugation for 10 m at 2500 rpm at 20 °C, and washed three times in PBS. To the pellet, PBS was added to yield a 10% (v/v) erythrocytes/PBS suspension. The 10% suspension was then diluted 1:10 in PBS. Aliquots of 100 µl of erythrocytes suspension was added, in triplicate, to 100 µl of a two-fold dilution series of sulphonamides NEs and amphotericin B (at concentrations of 128, 64, 32, 16, 8, 4, 2, and 1 µM, respectively, in the same buffer) in microtubes. Negative and positive controls were performed by replacing drug dilution with PBS or with 200 µl of […] for the total haemolysis, respectively. The tubes were incubated for 1 h at 37 °C and then centrifuged for 10 min at 2000 rpm at 20 °C. From the supernatant fluid, 150 µl was transferred to a flat-bottomed microtiter plate, and the absorbance was measured spectrophotometrically at 540 nm. Five concentrations are required for HC50 calculation. The following formula was used to find out the percentage of haemolytic activity: [A540 treated sample − A540 of buffer)/(A540 of Triton X-100 − A540 of buffer)] × 100.

Haemolytic assay = format: cell-based, Human; settings: human, human erythrocytes (suspension in PBS), read-out: Haemolysis (%)
Experimental: as §1

[1] = parameters: method as in PMID 25825339; settings: cited from earlier work
Cytotoxic assay (MTT) = format: cell-based; settings: mouse, RAW 264.7 macrophages
Experimental: RAW 264.7 macrophages were obtained from the National Institute of Metrology, Quality and Technology (Inmetro, Rio de Janeiro, Brazil) and maintained in DMEM medium supplemented with 10% FBS at 37 °C in a 5% controlled CO2 atmosphere. Cell maintenance was performed every 48–72 h, time necessary for cells to achieve confluent monolayers.
Sulphonamide NEs cytotoxicity was performed using tetrazolium dye MTT colorimetric assay. RAW 264.7 macrophages were harvest after confluent monolayer achievement. The cells were washed twice with PBS and a cellular suspension of 10^6 cells/ml was prepared in fresh DMEM culture medium. Aliquots of 100 µl of the cellular suspension were placed into polystyrene 96-well plates, and then incubated at 37 °C in a 5% CO2 atmosphere for 6 h to allow for adherence of macrophages. After this period, the adherent cells were subjected to treatment with several concentrations of the sulphonamide NEs (1–128 µM), and then incubated for additional 48 h. […] Macrophage viability was determined after formazan crystals solubilisation with DMSO followed by the absorbance measurement at 570 nm using a SpectraMax M5 spectrophotometer (Molecular Devices, Los Angeles, CA). The 50% cytotoxic concentrations were calculated by regression analysis using Microsoft Excel 2013 software.

L. donovani = system: L. donovani; parameters: method as in PMID 25825339; settings: against L. donovani; cited from earlier work
[2] = system: L. infantum MHOM/BR/1974/PP75 promastigotes; assay: Antileishmanial microdilution assay (resazurin), promastigotes; format: cell-based, Leishmania infantum
Experimental: (§2) Leishmania (infantum MHOM/BR/1974/PP75 and L. amazonensis IFLA/BR/1967/PH8 were donated by the Leishmania Type Culture Collection (LTCC) of Oswaldo Cruz Institute/Fiocruz (Rio de Janeiro, Brazil). […] The antileishmanial activity of the sulphonamide NEs was evaluated by the microdilution technique. […] L. amazonensis and L. infantum promastigote forms were harvest at late log phase of growth (96 h), washed twice with PBS and resuspended in fresh culture medium to a final concentration of 5 × 10^6 parasites/ml. […] The minimal inhibitory concentration (MIC) was determined as the lowest concentration capable of inhibiting in vitro growth of the parasites. […] The selective index (SI) for promastigote forms of L. amazonensis and L. infantum was calculated by the ratio between the CC50 for RAW 264.7 macrophages and the IC50 for the parasites.

[3] = system: L. amazonensis IFLA/BR/1967/PH8 promastigotes; assay: as above; format: cell-based, Leishmania amazonensis
Experimental: as §2

[4] = Dissolution of sulphonamides in clove oil; format: physicochemical; settings: concentration of 5 mg/ml
Experimental: The oil-in-water (O/W) NEs were prepared by high-energy method using an ultrasound processor (Hielscher model UP100H, Hielscher GmbH, Berlin, Germany), according to the method descripted by Senna et al.[31]. Oil phase was prepared by sulphonamides dissolution in the clove oil. An amount of 5 mg of drug was weighted in a microtube and 1 ml of clove oil was added. The tube was agitated for 1 min for obtaining of the drug solution (5 mg/ml). Aqueous phase was prepared by adding 1 g of Pluronic F127® in 8 g of water. Then 1 ml of oil phase (drug dissolved in clove oil) was added to 9 ml of aqueous phase (Pluronic F127 in water) under constant ultrasound homogenisation (amplitude 80%, continuous cycle no. 1) during 5 min in an ice bath at 5 °C to prevent heating of the dispersion. A transparent NE was obtained at a concentration of 500 µg/ml.
The NEs were produced with 10% of oil phase. NEs were prepared also without the drug in order to evaluate the stability, droplet size and PDI. […] Phase separation and precipitation of the drug were not observed, and the NE was considered stable in the concentration of up to 500 µg/ml.

[5] = Leishmania infantum, L. infantum promastigotes, 120 h
[6] = Leishmania amazonensis, L. amazonensis promastigotes, 120 h

Structure (SMILES): C[C@@H]1[C@H](O)[C@@H](C)/C=C/C=C/C=C/C=C/C=C/C=C/C=C/[C@H](O[C@@H]2O[C@H](C)[C@@H](O)[C@H](N)[C@@H]2O)C[C@@H]2O[C@](O)(C[C@@H](O)C[C@@H](O)[C@H](O)CC[C@@H](O)C[C@@H](O)CC(=O)O[C@H]1C)C[C@H](O)[C@H]2C(=O)O [AMP, amphotericin B]
HC50 (Human erythrocytes): 27.93 ± 1.71^b µM
hemolysis at 1 h, 2 µM (Haemolytic assay; 2 µM): 1.18 ± 0.31%
hemolysis at 1 h, 4 µM (Haemolytic assay; 4 µM): 2.01 ± 0.02%
hemolysis at 1 h, 8 µM (Haemolytic assay; 8 µM): 2.09 ± 0.15%
hemolysis at 1 h, 16 µM (Haemolytic assay; 16 µM): 20.8 ± 0.5%
hemolysis at 1 h, 32 µM (Haemolytic assay; 32 µM): 57.8 ± 6.7%
hemolysis at 1 h, 64 µM (Haemolytic assay; 64 µM): 75.7 ± 5.24%
hemolysis at 1 h, 128 µM (Haemolytic assay; 128 µM): 100%
hemolysis at 1 h, 256 µM (Haemolytic assay; 256 µM): 100%
haemotoxicity [1]: 69.8%
CC50 at 48 h (Cytotoxic assay (MTT)): 1070 ± 1490 nM
IC50 (L. donovani): 0.214 ± 0.06 µg/mL (≈ 0.232 µM)
IS50 (selectivity index = CC50/IC50) ([2]; CC50 RAW 264.7 / IC50 L. infantum): 1.59 ± 0.01^d
IC50 [2, 5]: 670 ± 100 nM
IC90 [2, 5]: 1010 ± 30 nM
MIC ([2]; Leishmania infantum, L. infantum promastigotes, 120 h, 26 °C, read-out: MIC (minimum inhibitory concentration)): 4 µM (≈ 3.7 µg/mL)
IS50 (selectivity index = CC50/IC50) ([3]; CC50 RAW 264.7 / IC50 L. amazonensis): 1.78 ± 0.01^b
IC50 [3, 6]: 610 ± 10 nM
IC90 [3, 6]: 1230 ± 230 nM
MIC ([3]; Leishmania amazonensis, L. amazonensis promastigotes, 120 h, 26 °C, read-out: MIC (minimum inhibitory concentration)): 4 µM (≈ 3.7 µg/mL)

Structure (SMILES): NS(=O)(=O)c1ccc(NC(=O)Cc2ccc(Cl)cc2)c(F)c1 [Sulphonamide 3F]
Dissolution in clove oil [4]: easily dissolved

Structure (SMILES): NS(=O)(=O)c1ccc(NC(=O)Cc2ccccc2Br)c(F)c1 [Sulphonamide 3G]
Dissolution in clove oil [4]: easily dissolved

Structure (SMILES): NS(=O)(=O)c1ccc(CCNC(=O)Cc2ccccc2Br)cc1 [Sulphonamide 3W]
Dissolution in clove oil [4]: easily dissolved

More lines, now with the values ahead:

Dissolution in clove oil [4]: easily dissolved
Structure (SMILES): NS(=O)(=O)c1nnc(NC(=O)Cc2ccc(Cl)cc2)s1 [Sulphonamide 5B]

Dissolution in clove oil [4]: easily dissolved
Structure (SMILES): NS(=O)(=O)c1nnc(NC(=O)Cc2ccccc2Br)s1 [Sulphonamide 5C]

Dissolution in clove oil [4]: easily dissolved
Structure (SMILES): COc1ccc(CC(=O)Nc2nnc(S(N)(=O)=O)s2)cc1 [Sulphonamide 5D]
